{
  "source": "patent US20250186405A1",
  "about": "“Compound For Use In Treating Narcolepsy” (Alkermes, Inc., priority 2023, published 2025)",
  "test": "Oral PK of micronized Compound A, powder-in-capsule vs tablet, two particle sizes",
  "type": "in vivo, male Beagle dogs",
  "conditions": "male, Beagle, dog, plasma",
  "procedure": "A non-GLP study was conducted in male Beagle dogs to compare the Compound A plasma exposure of powder-in-capsule (PIC) versus tablet formulation after the administration of single oral doses of micronized Compound A. Two different particle sizes were tested with the following objectives: • 1. To compare the oral plasma exposure of micronized Compound A (12 micron Dv90 particle size) after the administration of 20 mg of Compound A powder-in-capsule vs 20 mg of Compound A in four tablets of 5 mg each. • 2. To compare the oral plasma exposure of 12 micron and 32 micron Dv90 particle size of 20 mg micronized Compound A administered in four tablets of 5 mg each. • 3. To evaluate the dose-linearity of Compound A by comparing the oral plasma exposure of Compound A following the oral administration of 5 mg (one tablet) versus 20 mg (four tablets) of Compound A.\nThe pharmacokinetic analysis of concentrations and concentration-time data are summarized in tabular form, below, using descriptive statistics. Concentration data were summarized according to nominal sampling times. Plasma concentrations below the lower limit of assay quantification (BLOQ) were not included in the computation of mean concentration values. Pharmacokinetic parameters for individual animals were estimated using the non-compartmental analysis (NCA) using Dotmatics Studies tool.\nThe absolute extravascular bioavailability (F %) were calculated using the following formula: F %= [(AUC0-∞(extravascular)×Dose(intravenous(IV)))/(AUC0-∞(intravenous(IV))×Dose(extravascular))]×100 Where the “extravascular” represents any of subcutaneous (SC), intraperitoneal (IP) or oral (PO) route of administration.\nThe F % is calculated for each subject in case the same animals were administered with both intravenous and extravascular dose, then the average is reported with the standard error; otherwise, F % is calculated using the mean values without reporting a standard deviation in case the subjects of intravenous and extravascular profiles are different. Pharmacokinetic parameters were summarized by dosing group, route of administration, formulation, etc. using descriptive statistics.",
  "note": "Where two headings read alike, the source gives them in different places.",
  "data": [
    {"smiles": "CS(=O)(=O)N[C@H]1CCCN2C(=O)COc3ccccc3C3CCC(CC3)OCC12", "note": "(stereo partly drawn) [Compound A, N-[(4S,4aR,7α,10α)-1,2,3,4,4a,5,7,8,9,10,16,17-dodecahydro-17-oxo-7,10-ethanopyrido[1,2-d][1,7,4]benzodioxaazacyclotridecin-4-yl]methanesulfonamide]", "values": [
      {"measurement": "bioavailability", "setting": "5 mg, one 5 mg tablet, 12 micron Dv90, read-out: Oral bioavailability (F %)", "value": 55, "unit": "%"},
      {"measurement": "bioavailability", "setting": "20 mg, 20 mg PIC and 4 tablets of 5 mg, 12 and 32 micron Dv90, read-out: F % (absolute oral bioavailability), range", "value": "26 to 29", "unit": "%"},
      {"measurement": "bioavailability", "setting": "20 mg, four 5 mg tablets (20 mg), 12 micron Dv90, read-out: Oral bioavailability (F %)", "value": 29, "unit": "%"},
      {"measurement": "Tmax", "setting": "20 mg PIC and 4 tablets of 5 mg, 12 and 32 micron Dv90", "value": "~3", "unit": "h"},
      {"measurement": "AUC(0-inf)", "setting": "20 mg PIC and 4 tablets of 5 mg, 12 and 32 micron Dv90, read-out: AUC0-∞, range", "value": "1570 to 1730", "unit": "ng·h/mL"},
      {"measurement": "Cmax", "setting": "20 mg PIC and 4 tablets of 5 mg, 12 and 32 micron Dv90, read-out: Cmax, range", "value": "230 to 270", "unit": "ng/mL"},
      {"measurement": "half-life", "setting": "20 mg PIC and 4 tablets of 5 mg, 12 and 32 micron Dv90, read-out: terminal t1/2 (converted)", "value": "~180", "unit": "min"}
    ]}
  ]
}
